This note sets out measurements from patent US9206173B2, “Heterocyclic compounds for the treatment of stress-related conditions” (OTSUKA PHARMACEUTICAL CO., LTD., priority 2009, dated 2015).

Each structure is given as a SMILES string. Counter-ions that a name gives are not always drawn. Like-named read-outs stand apart in the source and are kept apart here.

The target in experiment [1] is T1, human GPR10 (Homo sapiens (Human), UniProt P49683). Put plainly: Antagonistic activity on PrRP-induced intracellular calcium mobilization in human GPR10-expressing HEK293 cells. Format: cell-based. Particulars: PrRP 1 nM-induced intracellular calcium mobilization, Fluo-8. As to the method: Pharmacological Test 2 Antagonistic Activity on GPR10 Using Human GPR10-Expressing HEK293 Cells.
T1 sequence (P49683 whole entry): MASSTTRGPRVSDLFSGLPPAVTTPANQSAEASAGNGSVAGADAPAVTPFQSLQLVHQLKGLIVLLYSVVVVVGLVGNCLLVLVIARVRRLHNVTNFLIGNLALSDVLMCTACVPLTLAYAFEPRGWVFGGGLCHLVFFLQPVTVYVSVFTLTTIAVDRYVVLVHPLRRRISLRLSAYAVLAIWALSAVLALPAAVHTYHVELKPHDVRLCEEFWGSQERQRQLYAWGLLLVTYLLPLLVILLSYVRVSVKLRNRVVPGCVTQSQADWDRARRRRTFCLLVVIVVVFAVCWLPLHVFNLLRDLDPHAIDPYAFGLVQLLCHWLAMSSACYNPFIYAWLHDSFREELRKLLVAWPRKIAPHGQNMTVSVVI
Antagonistic activity of test compounds on PrRP-induced intracellular calcium mobilization was evaluated using GPR10-expressing HEK293 cells.
HEK293 cells expressing human GPR10 were maintained in Dulbecco's Modified Eagles' medium supplemented with 10% fetal bovine serum, 1% penicillin-streptomycin and 20 mM HEPES at 37° C. in a 5% CO2 incubator. GPR10-expressing HEK293 cells were placed in poly-D-lysine coated 96-well culture plates and cultured for 18-24 hr before the test at a density of 3×10^4 cells/well. […] The cells were incubated with test compounds for 15 min at room temperature, and then PrRP (the final concentration, 1 nM) was added into the medium. The changes in intracellular calcium-dependent fluorescence were monitored using a fluorescence imaging plate reader (FDSS3000, Hamamatsu Photonics K.K.). Fluo-8 fluorescence was measured with excitation at 490 nm and emission at 520 nm. The calcium-dependent fluorescence intensity was calculated by subtracting basal intensity (average intensity for 30 sec before agonist stimulation) from peak intensity for 60 sec after PrRP-stimulation, and then IC50 values were determined by nonlinear curve-fitting program, GraphPad Prism 5.

Experiment [2] has as its target T1, human GPR10. Put plainly: Inhibitory activity on binding of [3H]-PrRP to GPR10 (HEK 293 cell membrane fraction). An outline of the steps: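 Competition with [3H]-PrRP (1 nM final) for membranes from human GPR10-expressing HEK293 cells, 90 min at room temperature in HEPES/EDTA buffer pH 7.4; filtration and scintillation counting.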
The mark [3] stands for this setting: [3H]-PrRP 1 nM, human GPR10-expressing HEK 293 cell membrane fraction, Ki from IC50 by Cheng-Prussoff formula.

As for `COn1c(N[C@@H](C)c2ccc(Cl)cc2)nc2c(c1=O)CN(C(=O)c1ccc(Cl)cc1)CC2` [Example 9, 6-(4-chlorobenzoyl)-3-methoxy-2-(S)-[1-(4-chlorophenyl)ethylamino]-5,6,7,8-tetrahydropyrido[4,3-d]pyrimidin-4-(3H)-one], the half-maximal inhibitory concentration (IC50) (usually the concentration needed to halve the response being measured) on human GPR10 [1] was 204 nM. In addition, the Ki (in general, the dissociation constant of the complex between target and ligand, obtained from inhibition or displacement) at human GPR10 [2] (setting [3]) is 28 nM.
In the same order, the values of `COn1c(N[C@@H](C)c2ccc(C(F)(F)F)cc2)nc2c(c1=O)CN(C(=O)c1ccc(Cl)cc1)CC2` [Example 10, 6-(4-chlorobenzoyl)-3-methoxy-2-(S)-{1-[4-(trifluoromethyl)phenyl]ethylamino}-5,6,7,8-tetrahydropyrido[4,3-d]pyrimidin-4-(3H)-one hydrochloride] are 140 nM and 17 nM.
The matching figures for `COn1c(N[C@@H](C)c2ccc(C(F)(F)F)cc2)nc2c(c1=O)CN(C(=O)c1ccc(C#N)cc1F)CC2` [Example 11, 6-(4-cyano-2-fluorobenzoyl)-3-methoxy-2-(S)-{1-[4-(trifluoromethyl)phenyl]ethylamino}-5,6,7,8-tetrahydropyrido[4,3-d]pyrimidin-4-(3H)-one hydrochloride]: 34 nM and 15 nM.
With `COn1c(N[C@@H](C)c2ccc(C(F)(F)F)cc2)nc2c(c1=O)CN(C(=O)c1ccc(OC(F)(F)F)cc1)CC2` [Example 63], the IC50 on human GPR10 [1] was 686 nM. For the same molecule, on human GPR10 [2] (setting [3]), the Ki stood at 16 nM.
The matching figures for `CCOn1c(N[C@H](C)c2ccc(C(F)(F)F)cc2)nc2c(c1=O)CN(C(=O)c1ccc(Cl)cc1)CC2` [Example 86]: 3710 nM and 25 nM.
In the same order, the values of `CCOn1c(N[C@H](C)c2ccc(C(F)(F)F)cc2)nc2c(c1=O)CN(C(=O)c1ccc(C#N)cc1)CC2` [Example 92] are 156 nM and 11 nM.
The matching figures for `CCOn1c(N[C@H](C)c2ccc(C(F)(F)F)cc2)nc2c(c1=O)CN(C(=O)c1ccc(C#N)cc1F)CC2` [Example 95]: 227 nM and 5 nM.
Take `CCOn1c(N[C@H](C)c2ccc(C(F)(F)F)cc2)nc2c(c1=O)CN(C(=O)c1ccc(-c3cnco3)cc1)CC2` [Example 104]: the IC50 on human GPR10 [1] came to 158 nM. This molecule yielded an inhibition constant (Ki) on human GPR10 [2] (setting [3]) of 20 nM.
The matching figures for `CCOn1c(N[C@H](C)c2ccc(C(F)(F)F)cc2)nc2c(c1=O)CN(C(=O)c1cc3cccnc3s1)CC2` [Example 121]: 1680 nM and 17 nM.
In the same order, the values of `C[C@@H](Nc1nc2c(c(=O)n1N1CCCC1)CN(C(=O)c1ccc(C#N)cc1)CC2)c1ccc(C(F)(F)F)cc1` [Example 163] are 648 nM and 10 nM.
Consider `C[C@@H](Nc1nc2c(c(=O)n1N1CCCC1)CN(C(=O)c1ccc(C#N)cc1F)CC2)c1ccc(C(F)(F)F)cc1` [Example 166], for which the IC50 on human GPR10 [1] was determined as 298 nM. On human GPR10 [2] (setting [3]), this molecule registered a Ki of 6 nM.
The matching figures for `COn1c(N[C@@H](C)c2ccc(C(F)(F)F)cc2)nc2c(c1=O)CN(C(=O)COc1ccc(Cl)cc1)CC2` [Example 2389, 6-[2-(4-chlorophenoxy)acetyl]-3-methoxy-2-[(S)-1-(4-trifluoromethylphenyl)ethylamino]-5,6,7,8-tetrahydro-3H-pyrido[4,3-d]pyrimidin-4-one]: 678 nM and 8 nM.
Turning to `COn1c(N[C@@H](C)c2ccc(C(F)(F)F)cc2)nc2c(c1=O)CN(C(=O)CSc1ccc(Cl)cc1)CC2` [Example 2390, 6-[2-(4-chlorophenylsulfanyl)acetyl]-3-methoxy-2-[(S)-1-(4-trifluoromethylphenyl)ethylamino]-5,6,7,8-tetrahydro-3H-pyrido[4,3-d]pyrimidin-4-one], on human GPR10 [1], the IC50 stood at 1140 nM. Besides, the Ki at human GPR10 [2] (setting [3]) was 8 nM.
Regarding `COn1c(N[C@@H](C)c2ccc(C(F)(F)F)cc2)nc2c(c1=O)CN(C(=O)CCc1ccc(Cl)cc1)CC2` [Example 2391, 6-[3-(4-chlorophenyl)propionyl]-3-methoxy-2-[(S)-1-(4-trifluoromethylphenyl)ethylamino]-5,6,7,8-tetrahydro-3H-pyrido[4,3-d]pyrimidin-4-one], the concentration for half-maximal inhibition (IC50) at human GPR10 [1] was 3900 nM. On human GPR10 [2] (setting [3]), the affinity, expressed as Ki, was 134 nM.
In the case of `COn1c(N[C@@H](C)c2ccc(C(F)(F)F)cc2)nc2c(c1=O)CN(C(=O)/C=C/c1ccc(Cl)cc1)CC2` [Example 2392, 6-[(E)-3-(4-chlorophenyl)acryloyl]-3-methoxy-2-[(S)-1-(4-trifluoromethylphenyl)ethylamino]-5,6,7,8-tetrahydro-3H-pyrido[4,3-d]pyrimidin-4-one], the half-maximal inhibitory concentration (IC50) at human GPR10 [1] came to 5790 nM. The inhibition constant (Ki) on human GPR10 [2] was 12 nM.
Take `CC#CCn1c(N[C@@H](C)c2ccc(C(F)(F)F)cc2)nc2c(c1=O)CN(C(=O)c1ccc(-n3ccnc3)cc1)CC2` [Example 2402, 3-(2-butynyl)-6-(4-imidazol-1-ylbenzoyl)-2-[(S)-1-(4-trifluoromethylphenyl)ethylamino]-5,6,7,8-tetrahydro-3H-pyrido[4,3-d]pyrimidin-4-one dihydrochloride]: the IC50 at human GPR10 [1] is 99 nM. Moreover, affinity on human GPR10 [2] (setting [3]) was put at a Ki of 6 nM.
As to `COn1c(N[C@@H](C)c2ccc(C(F)(F)F)cc2)nc2c(c1=O)CN(C(=O)c1ccc(C)s1)CC2` [Example 2404, 3-methoxy-6-(5-methyl-thiophene-2-carbonyl)-2-[(S)-1-(4-trifluoromethylphenyl)ethylamino]-5,6,7,8-tetrahydro-3H-pyrido[4,3-d]pyrimidin-4-one], at human GPR10 [1], the half-inhibitory concentration (IC50) is 1130 nM. The affinity on human GPR10 [2] (setting [3]), expressed as Ki, was 10 nM.
The matching figures for `COn1c(N[C@@H](C)c2ccc(C(F)(F)F)cc2)nc2c(c1=O)CN(C(=O)c1ccc(Cl)s1)CC2` [Example 2405, 6-(5-chlorothiophene-2-carbonyl)-3-methoxy-2-[(S)-1-(4-trifluoromethylphenyl)ethylamino]-5,6,7,8-tetrahydro-3H-pyrido[4,3-d]pyrimidin-4-one]: 8790 nM and 15 nM.
For the molecule `CC#CCn1c(N[C@@H](C)c2ccc(C(F)(F)F)cc2)nc2c(c1=O)CN(C(=O)c1ccc(C#N)cc1F)CC2` [Example 2406, 4-{3-(2-butynyl)-4-oxo-2-[(S)-1-(4-trifluoromethylphenyl)ethylamino]-3,5,7,8-tetrahydro-4H-pyrido[4,3-d]pyrimidine-6-carbonyl}-3-fluorobenzonitrile hydrochloride], the IC50 at human GPR10 [1] came out at 78 nM. The molecule also came in with a Ki at human GPR10 [2] (setting [3]) of 2 nM.
Consider `CC#CCn1c(N[C@@H](C)c2ccc(C(F)(F)F)cc2)nc2c(c1=O)CN(C(=O)c1ccc(C#N)cc1)CC2` [Example 2407, 4-{3-(2-butynyl)-4-oxo-2-[(S)-1-(4-trifluoromethylphenyl)ethylamino]-3,5,7,8-tetrahydro-4H-pyrido[4,3-d]pyrimidine-6-carbonyl}benzonitrile hydrochloride], for which, on human GPR10 [1], the IC50 was found to be 207 nM. This molecule also registered a Ki on human GPR10 [2] (setting [3]) of 8 nM.
In the same order, the values of `CC#CCn1c(N[C@@H](C)c2ccc(C(F)(F)F)cc2)nc2c(c1=O)CN(C(=O)c1ccc(Cl)cc1)CC2` [Example 2409, 3-(2-butynyl)-6-(4-chlorobenzoyl)-2-[(S)-1-(4-trifluoromethylphenyl)ethylamino]-5,6,7,8-tetrahydro-3H-pyrido[4,3-d]pyrimidin-4-one hydrochloride] are 2440 nM and 16 nM.
